In the supplement of paper PMC11208160:

Assay: recombinant UMI read abundance after kanamycin selection (control-corrected) (log10(CPM+1)); higher = more efficient recombination; extreme values may be limits of the assay; sequences stand for … in AGTGCAGAGAAAATCGGCCAGTTTTCTCTGCCTGCAGTCCGCATGCCGTGGGACCCCTTGGGTTCTAACCTGTTGCCTAGATTTATGCAGCGGACTGCCTTTCTCCCAAAGTGATAAACCGG…AGGTTGGTTTCACT; site = the 11-nt donor
In short: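 Sequencing read counts were converted to CPM, averaged over two replicates and scaled by control-derived factors. Results are given as log10(CPM+1). The reads covered the donor–target junction of recombinant UMIs from a pooled Escherichia coli screen of donor and donor-binding-loop pairs for the IS621 bridge recombinase.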
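Further: IS621 bridge recombinase in Escherichia coli cells against a fixed T5 target plasmid.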

| Sequence | recombinant UMI read abundance (log10) |
| --- | --- |
| TAGAGTACATGGACCGGTTTTCCCGGTAATCCGTATTTGCA (site TAGAGTACTTG) | 2.08 |
| ACAGTATCATGGACCGGTTTTCCCGGTAATCCGTATTTGCA (site ACAGTATCTTA) | 2.23 |
| CATGCCTCATGGACCGGTTTTCCCGGTAATCCGTATTTGCT (site CATGCCTCTAG) | 2.76 |
| CCCTTCTCATGGACCGGTTTTCCCGGTAATCCGTATTTGGG (site CCCTTGTCTCC) | 0.0418 |
| AAAGTCACATGGACCGGTTTTCCCGGTAATCCGTATTTGGG (site CAAGTCACTCC) | 0.458 |
| CCCAGTCCATGGACCGGTTTTCCCGGTAATCCGTATTTGCA (site CCCTGTCCTTG) | 0.0169 |
| GCCGCTTCATGGACCGGTTTTCCCGGTAATCCGTATTTGGA (site GCCGCTTCTTC) | 1.23 |
| TAAGTCACATGGACCGGTTTTCCCGGTAATCCGTATTTGGG (site TAAGTCACTCC) | 0.00997 |
| GTTCGAGCATGGACCGGTTTTCCCGGTAATCCGTATTTGCC (site GTTCGAGCTGG) | 1.42 |
| CTTCTATCATGGACCGGTTTTCCCGGTAATCCGTATTTGTA (site CTTCTTTCTTA) | 0 |
| ACAGTATCATGGACCGGTTTTCCCGGTAATCCGTATTTGCA (site TCAGTTTCTTG) | 1.26 |
| AGCCTAACATGGACCGGTTTTCCCGGTAATCCGTATTTGTT (site AGCCTACCTAA) | 0.024 |
| CGAACATCATGGACCGGTTTTCCCGGTAATCCGTATTTGCT (site CGAGCATCTAG) | 1.39 |
| TTTGGCGCATGGACCGGTTTTCCCGGTAATCCGTATTTGAG (site TTTGGCGCTCT) | 0.115 |
| CCGTTTACATGGACCGGTTTTCCCGGTAATCCGTATTTGCT (site CCGTTTACTCG) | 0 |
| AATTGTACATGGACCGGTTTTCCCGGTAATCCGTATTTGTC (site AATTGTACTGA) | 0.692 |
| AGGTCCCCATGGACCGGTTTTCCCGGTAATCCGTATTTGTG (site AGGTGCCCTCA) | 0.0373 |
| GTGCATGCATGGACCGGTTTTCCCGGTAATCCGTATTTGTT (site GTGCATGCTAG) | 1.48 |
| GGCAATCCATGGACCGGTTTTCCCGGTAATCCGTATTTGAA (site GGCATTCCTTT) | 0.0126 |
| CTCTACCCATGGACCGGTTTTCCCGGTAATCCGTATTTGCT (site CTCTACTCTAG) | 2.87 |
| GAGTTCACATGGACCGGTTTTCCCGGTAATCCGTATTTGAT (site GAGATCACTAT) | 0.00366 |
| AACGGCCCATGGACCGGTTTTCCCGGTAATCCGTATTTGTT (site GACGGCCCTAA) | 0.0173 |
| ACCTAGACATGGACCGGTTTTCCCGGTAATCCGTATTTGGG (site ACCTAGGCTCC) | 0.0977 |
| GTCACACCATGGACCGGTTTTCCCGGTAATCCGTATTTGTT (site GTCACACCTAA) | 0.00382 |
| TGCACGACATGGACCGGTTTTCCCGGTAATCCGTATTTGCC (site TGCACGACTGG) | 1.52 |

| Sequence | recombinant UMI read abundance (log10) |
| --- | --- |
| GGCAATACATGGACCGGTTTTCCCGGTAATCCGTATTTGAA (site GGCAATACTTT) | 0.862 |
| GGTCCCACATGGACCGGTTTTCCCGGTAATCCGTATTTGTA (site GGTCCCACTTA) | 0.0202 |
| ACTTCTCCATGGACCGGTTTTCCCGGTAATCCGTATTTGAT (site ACTTCTCCTAT) | 0.78 |
| TCTGAAGCATGGACCGGTTTTCCCGGTAATCCGTATTTGGT (site TCTGAAGCTAC) | 0.00288 |
| ACACAAACATGGACCGGTTTTCCCGGTAATCCGTATTTGTC (site ACACTAACTGA) | 0 |
| CATAAAGCATGGACCGGTTTTCCCGGTAATCCGTATTTGAT (site CTTAAAGCTAT) | 0 |
| TGCTACGCATGGACCGGTTTTCCCGGTAATCCGTATTTGGT (site TGCTAGGCTAC) | 0 |
| TCCACAGCATGGACCGGTTTTCCCGGTAATCCGTATTTGCG (site TCCACTGCTCG) | 0.0252 |
| CCAAAGGCATGGACCGGTTTTCCCGGTAATCCGTATTTGCC (site CCAAAGGCTGG) | 0 |
| ATCCTTTCATGGACCGGTTTTCCCGGTAATCCGTATTTGAC (site ATCCTTTCTGT) | 0 |
| CCAGTATCATGGACCGGTTTTCCCGGTAATCCGTATTTGAA (site CCAGTATCTTT) | 1.05 |
| ACACCAGCATGGACCGGTTTTCCCGGTAATCCGTATTTGAT (site ACACCAGCTAT) | 2.01 |
| GTGATTCCATGGACCGGTTTTCCCGGTAATCCGTATTTGAC (site GTGATTCCTGT) | 1.95 |
| TCCGATTCATGGACCGGTTTTCCCGGTAATCCGTATTTGCC (site TCCTATTCTGG) | 0 |
| GTAGACGCATGGACCGGTTTTCCCGGTAATCCGTATTTGCG (site GTAGACGCTCG) | 2.33 |
| CCCCGTCCATGGACCGGTTTTCCCGGTAATCCGTATTTGCA (site CCCAGTCCTTG) | 0 |
| CGATGATCATGGACCGGTTTTCCCGGTAATCCGTATTTGCC (site CGATGATCTGG) | 2 |
| ACAGTATCATGGACCGGTTTTCCCGGTAATCCGTATTTGCA (site AGAGTGTCTTG) | 1.6 |
| ACAGTATCATGGACCGGTTTTCCCGGTAATCCGTATTTGCA (site AGAGTATCTTT) | 0.0042 |
| CAGGAGTCATGGACCGGTTTTCCCGGTAATCCGTATTTGCC (site CTGGAGTCTGG) | 1.73 |
| GACTCCTCATGGACCGGTTTTCCCGGTAATCCGTATTTGCC (site GACTCCTCTGG) | 2.02 |
| ACATCTACATGGACCGGTTTTCCCGGTAATCCGTATTTGTC (site ACATCTACTGA) | 0 |
| CCTAAAACATGGACCGGTTTTCCCGGTAATCCGTATTTGGC (site CCTAAAACTGC) | 0 |
| GAGCTCTCATGGACCGGTTTTCCCGGTAATCCGTATTTGAT (site GAGCTCCCTAT) | 1.06 |
| TAGCACGCATGGACCGGTTTTCCCGGTAATCCGTATTTGGG (site AAGCACGCTCC) | 0.0104 |

| Sequence | recombinant UMI read abundance (log10) |
| --- | --- |
| GGCTAATCATGGACCGGTTTTCCCGGTAATCCGTATTTGAT (site GGCTAATCTAT) | 0.935 |
| GCAGAGACATGGACCGGTTTTCCCGGTAATCCGTATTTGCG (site ACAGAGACTCG) | 2.51 |
| CCTTAGACATGGACCGGTTTTCCCGGTAATCCGTATTTGAG (site CATTAGACTCT) | 0.0191 |
| GTTAACTCATGGACCGGTTTTCCCGGTAATCCGTATTTGAA (site GTTAACTCTTT) | 1.85 |
| CTAGAAACATGGACCGGTTTTCCCGGTAATCCGTATTTGCA (site CTAGAAACTTG) | 2.59 |
| CCATACTCATGGACCGGTTTTCCCGGTAATCCGTATTTGCA (site ACATACTCTTG) | 0.648 |
| TGGCAGGCATGGACCGGTTTTCCCGGTAATCCGTATTTGGC (site TGGCTGGCTGC) | 0 |
| GTAGTATCATGGACCGGTTTTCCCGGTAATCCGTATTTGAC (site CTAGTATCTGT) | 2.47 |
| CTACTAACATGGACCGGTTTTCCCGGTAATCCGTATTTGGA (site CTACGAACTTC) | 0.00735 |
| ACCTAGACATGGACCGGTTTTCCCGGTAATCCGTATTTGGG (site CCCTAGACTCC) | 0.00828 |
| CCATACTCATGGACCGGTTTTCCCGGTAATCCGTATTTGCA (site TCATACTCTTG) | 0 |
| AGAAAGGCATGGACCGGTTTTCCCGGTAATCCGTATTTGAT (site AGAAAGGCTAA) | 0.418 |
| CCCGTTTCATGGACCGGTTTTCCCGGTAATCCGTATTTGAG (site CCCGTTTCTCT) | 0.807 |
| CACTCCTCATGGACCGGTTTTCCCGGTAATCCGTATTTGAC (site CACTCCTCTGG) | 1.55 |
| GTTCGAGCATGGACCGGTTTTCCCGGTAATCCGTATTTGCA (site GTTCGAGCTGG) | 0.789 |
| ATCCAAGCATGGACCGGTTTTCCCGGTAATCCGTATTTGGG (site ATCCAAGCTCG) | 0.0298 |
| GTTCGAGCATGGACCGGTTTTCCCGGTAATCCGTATTTGCA (site GTTCAAGCTTG) | 1.8 |
| CTCCTACCATGGACCGGTTTTCCCGGTAATCCGTATTTGCT (site CTGCTACCTAG) | 0.00362 |
| TGTACAGCATGGACCGGTTTTCCCGGTAATCCGTATTTGAC (site TGTACATCTGT) | 0.647 |
| CTGGAACCATGGACCGGTTTTCCCGGTAATCCGTATTTGCA (site CTGGAACCTTG) | 0 |
| CGATCATCATGGACCGGTTTTCCCGGTAATCCGTATTTGCG (site CGATCATCTAG) | 0 |
| AGCCTTTCATGGACCGGTTTTCCCGGTAATCCGTATTTGAC (site AGCCTTCCTGT) | 0 |
| CCTAAAGCATGGACCGGTTTTCCCGGTAATCCGTATTTGGT (site CCTAAAGCTAA) | 0.00229 |
| GATTGGACATGGACCGGTTTTCCCGGTAATCCGTATTTGAC (site GATAGGACTGT) | 0.353 |
| AGGACTACATGGACCGGTTTTCCCGGTAATCCGTATTTGAC (site AGGACTACTCT) | 0.0111 |
